{"source": "patent US20110124614A1", "about": "“Methods And Compositions For The Treatment of Autoimmune Disorders” (priority 2008, published 2011)", "type_in_all_cases": "in vivo, mouse", "key": {"[1]": {"system": "EAE in wild-type B6 mice", "experiment": "EAE clinical scoring, G-1 vs E2 pellets at different doses, wild-type B6 mice (Example III)", "settings": "for CDI / Daily / Mortality / Onset / Peak / Incidence: 34 days"}, "[2]": {"system": "EAE in wild-type B6 mice", "experiment": "EAE clinical scoring, daily s.c. injection of G-1 or E2, wild-type B6 mice"}, "[3]": {"system": "EAE in PD-1KO mice", "experiment": "EAE clinical scoring, G-1 or E2 pellets, PD-1KO mice (Example IX)"}, "[4]": {"system": "CNS infiltration, demyelination and axonal damage in spinal cord of WT EAE mice", "experiment": "Spinal cord histology (H&E, LFB-PAS, SMI312, SMI32), WT EAE mice", "from_the_text": "Spinal cords were dissected out for histology. Intact spinal columns were removed and dissected after fixation in 4% paraformaldehyde, dehydrated and embedding in paraffin. To examine neuroinflammation, the sections were stained with hematoxylin and eosin (H&E). To examine demyelination, the sections were stained with Luxon fast blue plus periodic acid Schiff (LFB-PAS). The mice from the clinical experiment shown in FIG. 2A were euthanized at the end of the experiment and spinal cords were dissected out for histology. Intact spinal cords were removed and dissected after fixation in 4% paraformaldehyde, dehydrated and embedding in paraffin. To examine neuroinflammation, the sections were stained with hematoxylin and eosin (H&E). To examine demyelination, the sections were stained with Luxon fast blue plus periodic acid Schiff (LFB-PAS). To visualize axonal damage, spinal cords were fixed in 4% paraformaldehyde (maass/volume in PBS, pH 7.4) at 4° C. for at least 48 h. The spinal cords were dissected out from the columns, cut into sections 1-2 mm in length from the sampled thoracic or […] cords, dehydrated and embedded in paraffin blocks. Then, 10 μm thick sections were cut from paraffin blocks and mounted onto pre-cleaned microscope slides. The sections were dewaxed and rehydrated sequentially by xylene (2 min), gradient ethanol (100%, 95%, 85%, 2 min each) and PBS (5 min) and then cooked (120° C.) in antigen unmasking agent Trilogy® (Cell Marque, Hot Springs, Ark.) for 10 min in a pressure steamer. […] The slides were counterstained with hematoxylin for 30-60 s to visualize nuclei, washed with tap water, dehydrated, and mounted with Cytoseal™ XYL mounting medium (Richard-Allan Scientific, Kalamazoo, Mich.). The sections were analyzed by light microscopy after staining and recorded with a digital camera."}, "[5]": {"system": "splenocytes and lymph node cells of WT EAE mice", "experiment": "Ex vivo T cell proliferation to mMOG-35-55, WT mice", "settings": "G-1 and E2 implanted WT mice, FIG. 2C", "procedure": "(§1) Splenocytes and lymph node cells were harvested ex-vivo from G-1 and E2 implanted mice and cultured in a 96-well flat bottom tissue culture plate at 4×10^5 cells/well in stimulation medium in the presence of APC, irradiated (2500 rad) syngenic thymocytes at a ration of 1:10 (T:APCs) wither with or without mMog 35-55 peptide at varying concentrations. The cells were incubated for 3 days at 37° C. in 7% CO2 and pulsed with 0.5 μCi of [^3H] thymidine (Perkin-Elmer, Boston, Mass.) for the final 18 h of incubation. The cells were harvested onto glass fiber filters, and incorporated radioactivity was measured by a liquid scintillation counter. The cpm values (mean±SD) were calculated from triplicate wells. Stimulation index (SI) was calculated by dividing the experimental cpm by the control cpm."}, "[6]": {"system": "T cells of GPR30KO EAE mice", "experiment": "Ex vivo T cell proliferation to mMOG-35-55, GPR30KO mice", "settings": "Example IV", "procedure": "as §1"}, "[7]": {"system": "PD-1 expression in CD4^+FoxP3^+ T cells", "experiment": "PD-1 expression in CD4+FoxP3+ Treg cells by flow cytometry, WT mice (Example VI)", "procedure": "Splenocytes or lymph node cells were harvested from placebo-, E2- or G-1 treated mice after EAE induction as shown in FIG. 2A and stained for CD4, FoxP3 and PD-1. The expression levels of Pd-1 were analyzed by gating on CD4^+FoxP3^+ cells from placebo-, E2, or G-1 treated WT mice. For membrane staining, 1 million cells were stained at 4° C. in the dark with appropriate Ab dilutions in staining buffer (PBS containing 0.5% BSA and 0.02% sodium azide), Intracellular staining for FoxP3 was performed following the protocol recommended by eBioscience. Briefly, 4 million cells were surface stained following standard procedures. After washing, the cells were fixed overnight and washed twice with 0.5 ml of permeabilization buffer. The cells were co-stained for 15 min with FcBlock (Becton Dickinson, Franklin Lake., NJ) and IgG PerCp (eBioscience, San Diego, Calif.) followed 30 min later with fluorescent-labeled antibodies to FoxP3 (eBioscience, San Diego, Calif.) or isotype control. The cells were then washed twice with 2 ml of permeabilization buffer and once with 1 ml of staining buffer, and re-suspended in staining buffer. Flow cytometry data were collected on LSRII and FACSCalibur flow cytometers (BD Bioscience, Franklin Lakes, N.J.), and analyzed using FlowJo software (Tree Star, Ashland, Oreg.). Data represent 50,000-100,000 events unless otherwise noted. […] The histogram overlay compares the MFI of PD-1 in CD4^+FoxP3^+ T cells from different treatment groups. The bar charts show the average percentages of PD-1^+ CD4^+FoxP3^+ T cells and the average MFI of PD-1 in CD4^+FoxP3^+ T cells from all mice in each grip[/*P<0.05 or **P<0.01 compared to placebo control."}, "[8]": {"system": "PD-L1 and PD-L2 expression", "experiment": "PD-L1 and PD-L2 expression on APCs and T cells by flow cytometry (Example VIII)", "settings": "treated WT EAE mice, FIG. 5C"}, "[9]": {"settings": "G-1 injection, 20 μg/mouse/day s.c., 20 days"}, "[10]": {"settings": "PD-1KO, 1.8 mg/40 day G-1 pellet, 20 days"}}, "note": "“Also recorded” adds a separate entry of the source. Marks after values point to notes of the source that are not given here."}
{"smiles": "CC(=O)c1ccc2c(c1)C1C=CCC1C(c1cc3c(cc1Br)OCO3)N2", "note": "(stereo not drawn) [G-1]", "values": [{"measurement": "CDI", "setting": "[1]; 0.01 mg G-1 pellet", "value": "43.8 ± 39.9"}, {"measurement": "Daily", "setting": "[1]; 0.01 mg G-1 pellet", "value": "1.8 ± 1.6"}, {"measurement": "Mortality", "setting": "[1]; 0.01 mg G-1 pellet", "value": "0/6"}, {"measurement": "Onset", "setting": "[1]; 0.01 mg G-1 pellet", "value": "13.6 ± 1.6"}, {"measurement": "Peak", "setting": "[1]; 0.01 mg G-1 pellet", "value": "3.1 ± 1.7"}, {"measurement": "Incidence", "setting": "[1]; 0.01 mg/40 day release G-1 pellet", "value": "5/6"}, {"measurement": "CDI", "setting": "[1]; 0.1 mg G-1 pellet", "value": "18.8 ± 28.3"}, {"measurement": "Daily", "setting": "[1]; 0.1 mg G-1 pellet", "value": "0.75 ± 1.3"}, {"measurement": "Mortality", "setting": "[1]; 0.1 mg G-1 pellet", "value": "0/6"}, {"measurement": "Onset", "setting": "[1]; 0.1 mg G-1 pellet", "value": "16.7 ± 2.3"}, {"measurement": "Peak", "setting": "[1]; 0.1 mg G-1 pellet", "value": "1.5 ± 1.6"}, {"measurement": "Incidence", "setting": "[1]; 0.1 mg/40 day release G-1 pellet", "value": "3/6"}, {"measurement": "CDI", "setting": "[1]; 1.8 mg G-1 pellet", "value": "0**"}, {"measurement": "Daily", "setting": "[1]; 1.8 mg G-1 pellet", "value": "0**"}, {"measurement": "Mortality", "setting": "[1]; 1.8 mg G-1 pellet", "value": "0/7"}, {"measurement": "Peak", "setting": "[1]; 1.8 mg G-1 pellet", "value": "0**"}, {"measurement": "Incidence", "setting": "[1]; 1.8 mg/40 day release G-1 pellet one week before immunization", "value": "0/7**"}, {"measurement": "protection from clinical EAE (in words)", "setting": "[1]; 1.8 mg/40 day release G-1 pellets", "value": "completely protected"}, {"measurement": "clinical EAE (in words), dose dependence", "setting": "[1]; G-1 pellets 1.8, 0.1 or 0.01 mg/40 day release", "value": "delayed and ameliorated EAE in a dose-dependent manner"}, {"measurement": "protection from clinical EAE compared with E2", "setting": "[1]; lower doses of G-1 pellets", "value": "less effective than E2"}, {"measurement": "protection against EAE (in words)", "setting": "[2]; G-1 20 μg/mouse/day s.c. injections", "value": "partially protective"}, {"measurement": "CDI", "setting": "[2]; [9]", "value": "19.7 ± 11.3"}, {"measurement": "Daily", "setting": "[2]; [9]", "value": "2.7 ± 1.3"}, {"measurement": "Mortality", "setting": "[2]; [9]", "value": "1/8"}, {"measurement": "Onset", "setting": "[2]; [9]", "value": "13.7 ± 1.3"}, {"measurement": "Peak", "setting": "[2]; [9]", "value": "3.7 ± 1.6"}, {"measurement": "Incidence", "setting": "[2]; G-1 injection, 20 μg/mouse/day s.c., euthanized 20 days after immunization", "value": "6/8"}, {"measurement": "protection against clinical EAE (in words)", "setting": "[3]; G-1 1.8 mg/40 day pellet, PD-1KO mice", "value": "failed to protect"}, {"measurement": "CDI", "setting": "[3]; [10]", "value": "30.6 ± 9.1"}, {"measurement": "Daily", "setting": "[3]; [10]", "value": "2.7 ± 0.8"}, {"measurement": "Mortality", "setting": "[3]; [10]", "value": "1/5"}, {"measurement": "Onset", "setting": "[3]; [10]", "value": "13.8 ± 1.3"}, {"measurement": "Peak", "setting": "[3]; [10]", "value": "4.8 ± 0.6"}, {"measurement": "Incidence", "setting": "[3]; PD-1KO, 1.8 mg/40 day release G-1 pellet, euthanized after 20 days", "value": "5/5"}, {"measurement": "immune cell infiltration and demyelination in the CNS (H&E, LFB-PAS)", "setting": "[4]; WT mice of FIG. 2A experiment, FIG. 4 upper panels", "value": "markedly ameliorated; also recorded: reduced"}, {"measurement": "axons in the spinal cords (SMI312 staining)", "setting": "[4]; WT mice, FIG. 4 lower left panel", "value": "well preserved"}, {"measurement": "axonal damage in spinal cord sections", "setting": "[4]; WT mice, FIG. 4 lower panels", "value": "reduced the level of axonal damage"}, {"measurement": "SMI32 staining in white matter of spinal cords (ongoing axonal damage)", "setting": "[4]; WT mice, FIG. 4 lower right panel", "value": "much less SMI32 staining"}, {"measurement": "ex vivo T cell proliferation responses to mMog-35-55 peptide", "setting": "[5]", "value": "neither G-1 nor E2 treatment significantly altered"}, {"measurement": "T cell proliferation to mMog-35-55", "setting": "[6]", "value": "Neither G-1 nor E2 affected"}, {"measurement": "staining intensity of PD-1 in CD4^+FoxP3^+ cells", "setting": "[7]; spleen of treated WT mice, FIG. 5B", "value": "strongly enhanced"}, {"measurement": "boosting PD-1 expression in CD4^+FoxP3^+ cells, compared with E2", "setting": "[7]; treated WT mice", "value": "even more potent than E2"}, {"measurement": "conversion of CD4^+FoxP3^+PD-1^− cells to PD-1^+ cells", "setting": "[7]; treated WT mice, FIG. 5B", "value": "converted a majority"}, {"measurement": "PD-L1 expression on B cells and macrophages", "setting": "[8]", "value": "upregulated"}, {"measurement": "expression of PD-L2", "setting": "[8]", "value": "essentially no effect"}]}
